Results on 10 compounds are retold here after publication PMC7531004, “Discovery of gramicidin A analogues with altered activities by multidimensional screening of a one-bead-one-compound library” (Nature Communications, 2020).

One may read the viability as the share of living cells, or the viability signal relative to a control.

The subject of series [1] is Streptococcus pyogenes SSI-9. As to the kind of experiment: Antibacterial activity assay of bead-derived peptides (three concentrations). The format is cell-based. Details: key: +++: inhibition by the 640-fold diluted peptide solution; ++: inhibition by the 160-fold diluted solution; +: inhibition by the 40-fold diluted solution; -: no inhibition. Particulars: S. pyogenes, bead-derived peptide solution, three concentrations. In outline:
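Three stock dilutions per peptide (none, 4-fold, 16-fold in DMSO) are screened in 96-well format. The medium is blood-supplemented cation-adjusted MHB, inoculated with 2 × 10^5 CFU S. pyogenes SSI-9. Growth is read as cell precipitation at 18 h, 37 °C.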

Series [2] can be described thus: H+/Na+ transport assay of bead-derived peptides (one-point).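 Further: relative to parent gramicidin A activity set to 1.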 Details: key: relative activity; mean of two control wells = 1.00. Format: biochemical. Particulars: bead-derived peptide solution, EYPC/EYPG LUVs. In outline:
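One-point screen: peptide + pyranine-loaded LUVs, 30 min RT with vortexing, 96-well. Read-out is fluorescence intensity scaled as 100 × (Ix – I0)/(Imax – I0). Imax from Triton X-100, I0 from untreated vesicles, and the mean of the two control wells is set to 1.00.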

The conditions of series [3]: cell viability/%. In a few lines:
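First, library peptide stocks are diluted 250-fold in RPMI1640 with 10% heat-inactivated FBS. Next, they are mixed with P388 cells to give 1 × 10^4 cells/mL and incubated 92 h at 37 °C, 5% CO2. Finally, viability (%) is scored by WST-1 absorbance at 415 nm.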

Structures are written as SMILES. Where a SMILES comes first, the peptide text is derived from it. [ ]: non-standard residue; d: D form. The star is where a group is joined. NHCH2CH2OH = OCCN*; For = O=C*

Consider `CC(C)C[C@@H](NC(=O)[C@H](C)NC(=O)[C@H](NC(=O)[C@H](C)NC(=O)CNC(=O)[C@@H](NC=O)C(C)C)C(C)C)C(=O)N[C@H](C(=O)N[C@@H](C(=O)N[C@@H](Cc1c[nH]c2ccccc12)C(=O)N[C@@H](C(=O)N[C@@H](Cc1c[nH]c2ccccc12)C(=O)N[C@@H](C(=O)N[C@@H](Cc1c[nH]c2ccccc12)C(=O)N[C@H](CC(C)C)C(=O)N[C@@H](Cc1c[nH]c2ccccc12)C(=O)NCCO)[C@H](C)O)C(C)C)C(C)C)C(C)C` [compound 2727] (For-VGA[dV]A[dL]V[dV]W[dV]W[dT]W[dL]W-NHCH2CH2OH), for which, in series [1], the antibacterial activity result is “-”. Also, the “H+/Na+ transport activity normalized against the value of 1 (1.00)” value (shortened to “H+/Na+ transport activity normalized”) in series [2] is 1.05. The same compound registered a viability in series [3] of 100%.

As to `CC(C)C[C@@H](NC(=O)[C@H](C)NC(=O)CNC(=O)[C@@H](NC=O)C(C)C)C(=O)N[C@@H](C)C(=O)N[C@H](CC(C)C)C(=O)N[C@H](C(=O)N[C@@H](C(=O)N[C@@H](Cc1c[nH]c2ccccc12)C(=O)N[C@@H](C(=O)N[C@@H](Cc1c[nH]c2ccccc12)C(=O)N[C@@H](C(=O)N[C@@H](Cc1c[nH]c2ccccc12)C(=O)N[C@@H](C(=O)N[C@@H](Cc1c[nH]c2ccccc12)C(=O)NCCO)[C@H](C)O)C(C)C)C(C)C)C(C)C)C(C)C` [compound 2793] (For-VGA[dL]A[dL]V[dV]W[dV]W[dV]W[dT]W-NHCH2CH2OH), the antibacterial activity result in series [1] is listed as “-”. Moreover, in series [2], the “H+/Na+ transport activity normalized” value worked out at 1.08. In series [3], the viability worked out at 84.6%.

Take `CC(C)C[C@@H](NC(=O)[C@H](C)NC(=O)CNC(=O)[C@@H](NC=O)C(C)C)C(=O)N[C@@H](C)C(=O)N[C@H](CC(C)C)C(=O)N[C@H](C(=O)N[C@H](CC(C)C)C(=O)N[C@@H](Cc1c[nH]c2ccccc12)C(=O)N[C@@H](C(=O)N[C@@H](Cc1c[nH]c2ccccc12)C(=O)N[C@H](CC(C)C)C(=O)N[C@@H](Cc1c[nH]c2ccccc12)C(=O)N[C@H](CC(C)C)C(=O)N[C@@H](Cc1c[nH]c2ccccc12)C(=O)NCCO)C(C)C)C(C)C` [compound 2828] (For-VGA[dL]A[dL]V[dL]W[dV]W[dL]W[dL]W-NHCH2CH2OH): the antibacterial activity entry in series [1] was “-”. In series [2], the “H+/Na+ transport activity normalized” value came out at 1.15. This compound came in with a viability in series [3] of 2.8%.

Turning to `CC(C)C[C@@H](NC(=O)[C@H](Cc1c[nH]c2ccccc12)NC(=O)[C@H](NC(=O)[C@H](Cc1c[nH]c2ccccc12)NC(=O)[C@@H](CC(C)C)NC(=O)[C@H](Cc1c[nH]c2ccccc12)NC(=O)[C@H](NC(=O)[C@@H](NC(=O)[C@H](NC(=O)[C@H](C)NC(=O)[C@H](NC(=O)[C@H](C)NC(=O)CNC(=O)[C@@H](NC=O)C(C)C)C(C)C)C(C)C)C(C)C)[C@H](C)O)C(C)C)C(=O)N[C@@H](Cc1c[nH]c2ccccc12)C(=O)NCCO` [compound 2829] (For-VGA[dV]A[dV]V[dT]W[dL]W[dV]W[dL]W-NHCH2CH2OH), in series [1], the antibacterial activity result is “-”. In addition, the “H+/Na+ transport activity normalized” value in series [2] came out at 1.13. The viability in series [3] is 100%.

For the compound `CC(C)C[C@@H](NC(=O)[C@H](C)NC(=O)[C@H](NC(=O)[C@H](C)NC(=O)CNC(=O)[C@@H](NC=O)C(C)C)C(C)C)C(=O)N[C@H](C(=O)N[C@H](CC(C)C)C(=O)N[C@@H](Cc1c[nH]c2ccccc12)C(=O)N[C@@H](C(=O)N[C@@H](Cc1c[nH]c2ccccc12)C(=O)N[C@H](CC(C)C)C(=O)N[C@@H](Cc1c[nH]c2ccccc12)C(=O)N[C@@H](C(=O)N[C@@H](Cc1c[nH]c2ccccc12)C(=O)NCCO)[C@H](C)O)C(C)C)C(C)C` [compound 2895] (For-VGA[dV]A[dL]V[dL]W[dV]W[dL]W[dT]W-NHCH2CH2OH), the antibacterial activity entry in series [1] is “-”. The “H+/Na+ transport activity normalized” value in series [2] worked out at 1.06. The same compound returned a viability in series [3] of 95.1%.

Turning to `CC(C)C[C@@H](NC(=O)[C@H](C)NC(=O)CNC(=O)[C@@H](NC=O)C(C)C)C(=O)N[C@@H](C)C(=O)N[C@H](CC(C)C)C(=O)N[C@H](C(=O)N[C@H](CC(C)C)C(=O)N[C@@H](Cc1c[nH]c2ccccc12)C(=O)N[C@H](CC(C)C)C(=O)N[C@@H](Cc1c[nH]c2ccccc12)C(=O)N[C@H](CC(C)C)C(=O)N[C@@H](Cc1c[nH]c2ccccc12)C(=O)N[C@H](CC(C)C)C(=O)N[C@@H](Cc1c[nH]c2ccccc12)C(=O)NCCO)C(C)C` [compound 2904] (For-VGA[dL]A[dL]V[dL]W[dL]W[dL]W[dL]W-NHCH2CH2OH), the antibacterial activity result in series [1] is reported as “-”. Further, in series [2], the “H+/Na+ transport activity normalized” value is given as 1.09. The compound also gave a viability in series [3] of 12.5%.

Regarding `CNC(=O)C[C@@H](NC(=O)[C@H](Cc1c[nH]c2ccccc12)NC(=O)[C@H](NC(=O)[C@H](Cc1c[nH]c2ccccc12)NC(=O)[C@H](NC(=O)[C@H](Cc1c[nH]c2ccccc12)NC(=O)[C@H](NC(=O)[C@@H](NC(=O)[C@@H](CC(C)C)NC(=O)[C@H](C)NC(=O)[C@H](NC(=O)[C@H](C)NC(=O)CNC(=O)[C@@H](NC=O)C(C)C)C(C)C)C(C)C)C(C)C)C(C)C)C(C)C)C(=O)N[C@@H](Cc1c[nH]c2ccccc12)C(=O)NCCO` [compound 2911] (For-VGA[dV]A[dL]V[dV]W[dV]W[dV]W[dD](NHMe)W-NHCH2CH2OH), the antibacterial activity entry in series [1] is listed as “-”. For the same compound, the “H+/Na+ transport activity normalized” value in series [2] stood at 1.16. This compound also yielded a viability in series [3] of 100%.

In the case of `CC(C)C[C@@H](NC(=O)[C@H](C)NC(=O)CNC(=O)[C@@H](NC=O)C(C)C)C(=O)N[C@@H](C)C(=O)N[C@H](CC(C)C)C(=O)N[C@H](C(=O)N[C@@H](C(=O)N[C@@H](Cc1c[nH]c2ccccc12)C(=O)N[C@@H](C(=O)N[C@@H](Cc1c[nH]c2ccccc12)C(=O)N[C@@H](C(=O)N[C@@H](Cc1c[nH]c2ccccc12)C(=O)N[C@H](CC(C)C)C(=O)N[C@@H](Cc1c[nH]c2ccccc12)C(=O)NCCO)C(C)C)[C@H](C)O)C(C)C)C(C)C` [compound 2931] (For-VGA[dL]A[dL]V[dV]W[dT]W[dV]W[dL]W-NHCH2CH2OH), in series [1], the antibacterial activity result was “+”. Besides, in series [2], the “H+/Na+ transport activity normalized” value was determined as 1.06. The viability in series [3] worked out at 100%.

Consider `CNC(=O)C[C@@H](NC(=O)[C@@H](NC(=O)[C@@H](CC(C)C)NC(=O)[C@H](C)NC(=O)[C@@H](CC(C)C)NC(=O)[C@H](C)NC(=O)CNC(=O)[C@@H](NC=O)C(C)C)C(C)C)C(=O)N[C@@H](Cc1c[nH]c2ccccc12)C(=O)N[C@@H](C(=O)N[C@@H](Cc1c[nH]c2ccccc12)C(=O)N[C@H](CC(C)C)C(=O)N[C@@H](Cc1c[nH]c2ccccc12)C(=O)N[C@H](CC(C)C)C(=O)N[C@@H](Cc1c[nH]c2ccccc12)C(=O)NCCO)C(C)C` [compound 2978] (For-VGA[dL]A[dL]V[dD](NHMe)W[dV]W[dL]W[dL]W-NHCH2CH2OH), for which, in series [1], the antibacterial activity result is “-”. In addition, the “H+/Na+ transport activity normalized” value in series [2] was 1.18. The compound also had a viability in series [3] of 100%.

For `CC(C)C[C@@H](NC(=O)[C@@H](NC(=O)[C@H](NC(=O)[C@H](C)NC(=O)[C@H](NC(=O)[C@H](C)NC(=O)CNC(=O)[C@@H](NC=O)C(C)C)[C@H](C)O)C(C)C)C(C)C)C(=O)N[C@@H](Cc1c[nH]c2ccccc12)C(=O)N[C@@H](C(=O)N[C@@H](Cc1c[nH]c2ccccc12)C(=O)N[C@@H](C(=O)N[C@@H](Cc1c[nH]c2ccccc12)C(=O)N[C@@H](C(=O)N[C@@H](Cc1c[nH]c2ccccc12)C(=O)NCCO)C(C)C)C(C)C)C(C)C` [compound 3019] (For-VGA[dT]A[dV]V[dL]W[dV]W[dV]W[dV]W-NHCH2CH2OH), in series [1], the antibacterial activity result was “-”. For the same compound, the “H+/Na+ transport activity normalized” value in series [2] turned out to be 1.12. Also, the viability in series [3] was determined as 100%.
